Results on 8 compounds are retold here after PubChem BioAssay (NCI).

Where “and” joins values, the source holds several entries; their conditions need not be identical. Equal values may be shown once.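 Assay format: 96-well plates, 48-hour exposure. GI50 marks 50% less growth. Definition used: TGI = concentration required for complete inhibition of growth.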

Some test systems named below: ACHN renal; KM12 colon; HS 578T breast; IGROV1 ovarian; CCRF-CEM leukemia; CAKI-1 renal; TK-10 renal; SW-620 colon; BT-549 breast; MDA-MB-231 breast.
What all share (experiment): NCI tumour cell line growth inhibition, 48 h

In the case of `Cn1c(=N)n[n+]([O-])c2ccccc21`, the TGI is 23.5 µM and 22 µM with ACHN renal; 37.8 µM and 36.7 µM in the experiment with KM12 colon; 6.77 µM and 18.5 µM with HS 578T breast; 10.7 µM and 11.6 µM in the experiment on IGROV1 ovarian; 21.2 µM and 48.7 µM with CCRF-CEM leukemia; 5.86 µM and 6.18 µM in the experiment with CAKI-1 renal. The TGI with TK-10 renal was 70 µM and > 59.4 µM; with SW-620 colon it was greater than 26.8 µM; in the experiment on BT-549 breast, 3.27 µM and 3.46 µM; with MDA-MB-231 breast it was greater than 100 µM. In addition, the GI50 with HS 578T breast was 2.85 µM and 5.89 µM.

Take `O=S(=O)(CCCCl)SCCCCl`: the TGI in the experiment with ACHN renal was greater than 100 µM; with KM12 colon it was greater than 100 µM; in the experiment with HS 578T breast, 94.7 µM; in the experiment with IGROV1 ovarian it was greater than 67.5 µM; with CCRF-CEM leukemia, 47.1 µM; in the experiment with CAKI-1 renal it was greater than 100 µM. For the same compound, the TGI with TK-10 renal is greater than 100 µM; with SW-620 colon, 42.3 µM; in the experiment with BT-549 breast it was 28.1 µM; in the experiment with MDA-MB-231 breast, 69.4 µM.

Regarding `CC(C)(C)c1cc(-c2nc3c(F)c(F)c(F)c(F)c3[nH]2)cc(C(C)(C)C)c1O`, the GI50 in the experiment with ACHN renal, in the experiment on KM12 colon, with HS 578T breast, with IGROV1 ovarian, with CCRF-CEM leukemia and in the experiment on CAKI-1 renal was greater than 100 µM throughout. Besides, the GI50 with TK-10 renal, with SW-620 colon, with BT-549 breast and in the experiment with MDA-MB-231 breast was greater than 100 µM each time. Besides, the TGI in the experiment with ACHN renal, with KM12 colon, in the experiment on HS 578T breast, with IGROV1 ovarian, in the experiment on CCRF-CEM leukemia and with CAKI-1 renal was greater than 100 µM in each case. Also, the TGI with TK-10 renal, in the experiment on SW-620 colon, in the experiment with BT-549 breast and with MDA-MB-231 breast was greater than 100 µM in each case.

Regarding `COc1ccc2c(c1)C(=O)c1c-2c(NCCN(C)C)nc2ccccc12`, the GI50 in the experiment on ACHN renal is 1.17 µM; with KM12 colon, 2.94 µM; in the experiment on HS 578T breast, 9.28 µM; in the experiment with IGROV1 ovarian, 1.86 µM; in the experiment on CCRF-CEM leukemia, 0.561 µM; in the experiment on CAKI-1 renal it was 0.373 µM. The GI50 in the experiment on TK-10 renal was 8.19 µM; with SW-620 colon, 3.4 µM; in the experiment on BT-549 breast, 5.99 µM; with MDA-MB-231 breast it was 6.59 µM. In addition, the TGI with ACHN renal stood at 6.43 µM; in the experiment on KM12 colon, 23 µM; in the experiment on HS 578T breast, 26.8 µM; with IGROV1 ovarian it was 7.14 µM; with CCRF-CEM leukemia, 11.5 µM; in the experiment on CAKI-1 renal, 2.48 µM. The TGI was 28.8 µM in the experiment on TK-10 renal, 14 µM with SW-620 colon, 19.3 µM in the experiment on BT-549 breast and 19.9 µM with MDA-MB-231 breast.

As for `Cc1nc2sc(C(=O)Nc3cccc(Br)c3)c(N)c2cc1C(O)c1ccccc1` (stereo unspecified), the GI50 in the experiment on ACHN renal is 0.768 µM; with KM12 colon, 0.689 µM; in the experiment with HS 578T breast, 0.424 µM; in the experiment with IGROV1 ovarian, 1.94 µM; with CCRF-CEM leukemia, 0.413 µM; with CAKI-1 renal, 0.632 µM. The GI50 with TK-10 renal is 2.22 µM; with SW-620 colon it was 0.375 µM; with BT-549 breast it was 1.75 µM; in the experiment on MDA-MB-231 breast, 1.85 µM. Also, the TGI was 14.7 µM in the experiment with ACHN renal; 12.6 µM in the experiment with KM12 colon; 9.21 µM in the experiment on HS 578T breast; 16.6 µM with IGROV1 ovarian; greater than 43.2 µM in the experiment with CCRF-CEM leukemia; 15.6 µM in the experiment on CAKI-1 renal. Further, the TGI in the experiment on TK-10 renal is 26.7 µM; with SW-620 colon it was greater than 38 µM; with BT-549 breast it was 19.9 µM; in the experiment on MDA-MB-231 breast it was 16.4 µM.

Turning to `CC(=O)[O][Bi]([c]1ccccc1)[c]1ccccc1`, the GI50 was 11.8 µM in the experiment on ACHN renal; 15.8 µM in the experiment on KM12 colon; 24.9 µM with HS 578T breast; 2.48 µM in the experiment with IGROV1 ovarian; 2.27 µM with CCRF-CEM leukemia; 11.1 µM in the experiment with CAKI-1 renal. Also, the GI50 in the experiment with TK-10 renal was 1.85 µM; in the experiment on SW-620 colon it was 2.27 µM; with BT-549 breast it was 2.94 µM; in the experiment on MDA-MB-231 breast it was 14.4 µM. Moreover, the TGI in the experiment on ACHN renal stood at 24.4 µM; in the experiment with KM12 colon, 30.1 µM; in the experiment on HS 578T breast, 71.9 µM; in the experiment with IGROV1 ovarian it was 6.77 µM; in the experiment on CCRF-CEM leukemia, 5 µM; with CAKI-1 renal, 26.2 µM. The TGI with TK-10 renal is 6.38 µM; with SW-620 colon, 5.45 µM; in the experiment on BT-549 breast it was 9.32 µM; in the experiment on MDA-MB-231 breast it was 28.4 µM.

As for `CN1CCN(CC(=O)N2c3cccc4cccc(c34)N(C(=O)CN3CCN(C)CC3)C2c2cn(-c3ccccc3)nc2-c2cccc([N+](=O)[O-])c2)CC1`, the GI50 with ACHN renal is 2.22 µM; with KM12 colon it was 1.85 µM; in the experiment with HS 578T breast it was 1.95 µM; in the experiment on IGROV1 ovarian it was 1.73 µM; in the experiment on CCRF-CEM leukemia, 1.69 µM; in the experiment with CAKI-1 renal, 1.83 µM. The GI50 with TK-10 renal is 2.42 µM; in the experiment on SW-620 colon, 1.91 µM; in the experiment with BT-549 breast, 1.67 µM; in the experiment with MDA-MB-231 breast, 1.84 µM. The TGI in the experiment on ACHN renal turned out to be 5.33 µM; in the experiment with KM12 colon it was 3.43 µM; in the experiment on HS 578T breast it was 5.71 µM; in the experiment on IGROV1 ovarian, 3.71 µM; in the experiment on CCRF-CEM leukemia it was 4.45 µM; in the experiment with CAKI-1 renal it was 4.1 µM. In addition, the TGI in the experiment with TK-10 renal is 5.61 µM; with SW-620 colon it was 4.37 µM; in the experiment on BT-549 breast it was 3.26 µM; in the experiment with MDA-MB-231 breast it was 3.68 µM.

Take `Oc1c(CN2CCN(c3ccccc3F)CC2)cc(Br)c2cccnc12`: the GI50 is 0.495 µM in the experiment with ACHN renal; 0.672 µM in the experiment on KM12 colon; 1.82 µM in the experiment on HS 578T breast; 0.808 µM in the experiment on IGROV1 ovarian; 0.355 µM in the experiment on CCRF-CEM leukemia; 0.376 µM in the experiment on CAKI-1 renal. Besides, the GI50 in the experiment on TK-10 renal is 5.45 µM; in the experiment on SW-620 colon, 0.47 µM; with BT-549 breast, 2.02 µM; with MDA-MB-231 breast, 0.902 µM. In addition, the TGI with ACHN renal was 13.7 µM; in the experiment on KM12 colon, greater than 100 µM; with HS 578T breast, 55.5 µM; in the experiment on IGROV1 ovarian it was 14.5 µM; with CCRF-CEM leukemia, 6.35 µM; with CAKI-1 renal, 9.26 µM. Besides, the TGI in the experiment with TK-10 renal is 29 µM; with SW-620 colon, 20.2 µM; in the experiment with BT-549 breast, greater than 100 µM; in the experiment on MDA-MB-231 breast it was 15.2 µM.
